Measured values published in patent US11370788B2, “Substituted imidazo[4,5-c]quinoline compounds with an N-1 branched group” (3M INNOVATIVE PROPERTIES COMPANY, priority 2018, dated 2022).

Test system: Human peripheral blood mononuclear cells (PBMC)
Experiment: Cytokine Induction in Human Cells (PBMC)
Format: cell-based
Settings: 21-24 hours culture, lowest concentration giving cytokine at least 2× negative control; for MEC to Induce Cytokine IFN-alpha: ELISA; for MEC to Induce Cytokine IFN-gamma / MEC to Induce Cytokine TNF-alpha: multiplex bead assay
Protocol: Whole blood was obtained from healthy human donors and collected by venipuncture into vacutainer tubes or syringes containing EDTA. Human peripheral blood mononuclear cells (PBMC) were purified from the whole blood by density gradient centrifugation. Histopaque 1077 (15 mL, Sigma, St. Louis, Mo.) was transferred to 6×50 mL sterile polypropylene conical tubes. The Histopaque was overlayed with 15-25 mL of blood diluted 1:2 in Hank's Balanced Salts Solution (HBSS) (Gibco, Life Technology, Grand Island, N.Y.). The tubes were then centrifuged at 1370 rpm for 30 minutes at 20° C., with no brake (400λg, GH 3.8A Rotor).
The interface (buffy coat) containing the PBMC was collected and placed in a new sterile 50 mL conical polypropylene centrifuge tube. The PBMC were mixed with an equal volume of HBSS (about 20 mL from the interface and about 20 mL of HBSS), and then centrifuged at 1090 rpm, 10 minutes, 20° C., with brake (270λg, GH 3.8A Rotor). After completing centrifugation, the cells were resuspended in 2 to 3 mL ACK Red blood cell lysis buffer (ammonium chloride potassium solution, Gibco, Life Technology) and incubated for 2-5 minutes at 20° C. Next, HBSS (40 mL) was added to the cells, and the sample was centrifuged at 270×g for 10 minutes at 20° C. The supernatant was decanted, and the cell pellet was resuspended in 5 mL AIM V Medium (Gibco, Life Technology). Cell aggregates and debris were removed by filtering the cell solution through a BD Falcon 70 micron nylon cell strainer (BD Biosciences, San Jose, Calif.).
The number of viable cells was determined by counting with a Miltenyi FACS instrument (Miltenyi Biotec Inc., San Diego, Calif.) or by using a hemacytometer. For determining cell viability with a hemacytometer, the cells were diluted 1/10 in 0.4% trypan blue and HBSS (specifically, 50 microliter of trypan blue+40 microliter of HBSS+10 microliter of cell solution were added to a microfuge tube and mixed). Ten microliters of the diluted cells were then applied to the hemacytometer, and the number of viable PBMC were determined by microscopy.
The PBMC sample was then resuspended in 96-well plates at a concentration of 8×10^5 cells/well in 0.1 mL of AIM-V medium. Each compound was solubilized in DMSO to create a 3 mM stock solution. The stock solution was then further diluted with AIM-V medium to prepare the serial dilutions. The diluted compound (100 microliters) was then transferred to the PBMCs to achieve final compound concentrations of 30, 10, 3.3, 1.1, 0.37, 0.12, 0.04, 0.01 micromolar. The plates also had both positive and negative controls. The negative control wells contained only AIM-V medium with no example compound. The positive control wells contained imiquimod serially diluted to concentrations of 30, 10, 3.3, 1.1, 0.37, 0.12, 0.04, 0.01 micromolar. The plates were then cultured at 37° C./5% CO2 for 21-24 hours. Cell-free supernatants were harvested by centrifuging the 96-well plates at 2100 rpm, 23° C. for 10 minutes. Approximately 160 microliter of the supernatant was then stored in a NUNC 96-well plate, covered with the compression cap and stored at −80° C. until the cytokine analysis was done.
IFN-alpha cytokine levels (picograms/mL) were measured by ELISA (human IFN-alpha, pan specific, Mabtech, Cincinnati, Ohio). IFN-gamma and TNF-alpha levels (picograms/mL) were measured by multiplex bead assay (magnetic beads, R & D Systems, Minneapolis, Minn.) according to the manufacturer's instructions.
Specifically, the minimum effective concentration of each compound (micromolar) was determined as the lowest concentration of the compound that induced a measured cytokine response at a level ([…]) that was at least 2× greater than that observed with the negative control wells.

Structure (SMILES)	MEC to Induce Cytokine IFN-alpha [µM]	MEC to Induce Cytokine IFN-gamma [µM]	MEC to Induce Cytokine TNF-alpha [µM]
CCCCCCCCCCCCOc1ccc(C[C@@H](COCC)n2cnc3c(N)nc4ccccc4c32)cc1 [Example 1, 1-[(1 S)-1-[(4-dodecoxyphenyl)methyl]-2-ethoxy-ethyl]imidazo[4,5-c]quinolin-4-amine]	3.3	10	3.3
CCCCCCCCOc1ccc(C[C@@H](COCC)n2cnc3c(N)nc4ccccc4c32)cc1 [Example 2, 1-[(1S)-1-(ethoxymethyl)-2-(4-octoxyphenyl)ethyl]imidazo[4,5-c]quinolin-4-amine]	0.12	0.37	0.37
CCCCOc1ccc(C[C@@H](COCC)n2cnc3c(N)nc4ccccc4c32)cc1 [Example 3, 1-[(1S)-1-[(4-butoxyphenyl)methyl]-2-ethoxy-ethyl]imidazo[4,5-c]quinolin-4-amine]	≤0.01	≤0.01	≤0.01
CCCCCCOc1ccc(C[C@@H](COCC)n2cnc3c(N)nc4ccccc4c32)cc1 [Example 4, 1-[(1S)-1-(ethoxymethyl)-2-(4-hexoxyphenyl)ethyl]imidazo[4,5-c]quinolin-4-amine]	≤0.01	≤0.01	≤0.01
CCCCC(CC)COc1ccc(C[C@@H](COCC)n2cnc3c(N)nc4ccccc4c32)cc1 (stereo partly drawn) [Example 5, 1-[(1 S)-1-(ethoxymethyl)-2-[4-(2-ethylhexoxy)phenyl]ethyl]imidazo[4,5-c]quinolin-4-amine]	0.37	0.04	≤0.01
CCOC[C@H](Cc1ccc(OCc2ccccc2)cc1)n1cnc2c(N)nc3ccccc3c21 [Example 6, 1-[(1S)-1-[(4-benzyloxyphenyl)methyl]-2-ethoxy-ethyl]imidazo[4,5-c]quinolin-4-amine]	≤0.01	≤0.01	≤0.01
